Where two headings read alike, the source gives them in different places. A value given as a limit tells only on which side of the number the result lay.

One data set in a line: pKa. The data set is classed as physicochemical.
Data set [1] addresses P-glycoprotein (MDR1-transfected MDCK cell line) (Homo sapiens (Human), UniProt P08183). Nature of the data set: Pgp Liability MDR1 Er. The note with it: Papp BA/AB. The data set is classed as in vitro ADME. The text has this:
MDR1 Efflux Ratio (MDR Er) from MDR1-transfected MDCK line cell line represents the ratio of permeability, Papp BA/AB. Procedure utilized from (Feng, B.; Mills, J. B.; Davidson, R. E.; Mireles, R. J.; Janiszewski, J. S.; Troutman, M. D.; de Morais, S. M. In vitro P-glycoprotein assays to predict the in vivo interactions of P-glycoprotein with drugs in the central nervous system. Drug Metab. Dispos. 2008, 36, 268-275.

The next data set concerns the target CYP2D6 (Homo sapiens (Human), UniProt P10635). Nature of the data set: General Multi-Point Cocktail DDI IC50 Assay. How it is done: General Multi-Point Cocktail DDI IC50 Assay Conditions:
The incubation volume is 0.1 mL, utilizing a 384-well plate format. […] Substrate concentrations are near Km values that had been previously determined and incubation times are selected based on determinations of reaction velocity linearity. […] Samples are directly injected on an HPLC/MS/MS system. A Biomek FX workstation is used for liquid handling and sample incubation.

The next data set has as its target BACE1 (Homo sapiens (Human), UniProt P56817). The data set is described as follows: BACE1 Cell-Free Assay (fluorescence polarization). The format is biochemical.
Data set [2] in a line: HLM Clint (clearance in human liver microsomes). The format is in vitro ADME. The note with it: for CLint scaled: human. Background: Liver microsomes are a subcellular fraction often used to study metabolism.
The next data set deals with hERG channel (Homo sapiens (Human), UniProt Q12809). Nature of the data set: hERG Patch Clamp Assay. The format is cell-based. How it is done: After a ˜30 minute recovery period, experiments were initiated.
hERG Potassium Channel Current Recordings and Data Analysis:
The intracellular recording saline was composed of (in […]): 70 KF, 60 KCl, 15 NaCl, 5 EGTA, 5 HEPES, and adjusted to pH 7.2±0.1 with KOH. […] Test pulses were delivered at a frequency of 0.25 Hz. Up to 4 different concentrations were studied on each cell, each exposure lasting 5 minutes or until steady-state effects were observed. […] Using Sophion Qpatch Assay Software, the amplitude of the peak outward hERG current upon repolarizing ramp was measured. Current amplitude was determined by taking the average of the last 5 current peaks under each treatment condition. […] When possible, a concentration-response curve was plotted and the data were fitted using Qpatch software to determine an IC50. The P<0.05 was considered statistically significant.
(In general: Block of hERG is tested as a sign of cardiac risk.)

Data set [3] deals with sAPPβ, the primary cleavage product of BACE1, in H4 human neuroglioma cells over-expressing the wild-type human APP695. Nature of the data set: sAPPβ Whole-Cell Assay (WCA). The data set is classed as cell-based. Conditions: 18 h. As for the experimental part:
sAPPβ Whole-Cell Assay (WCA):
sAPPβ, the primary cleavage product of BACE1, was determined in H4 human neuroglioma cells over-expressing the wild-type human APP695. […] The colorimetric reaction was read by an EnVision (PerkinElmer) plate-reader.

Another data set is described as follows: GSH Incubation Assay. The format is in vitro ADME. The note with it: for Observed GSH adducts: Incubations with glutathione (50 mM) at 37° C. in buffer for 4 hours; for formation of GSH adducts: following incubations. As for the experimental part: The test compound (10 μM in DMSO) was incubated with L-glutathione (50 mM, prepared in 100 mM potassium phosphate buffer) at 37° C. for 4 hours and then analyzed by HPLC-UV/MS/MS without work-up. Thermo Accela HPLC and Velos Pro Orbitrap Elite (S/N: SN05189B) operating in positive mode with a source voltage of 3.5 kV with data dependant processing. HPLC with a Phenomenox Kinetex C18, 1.7 μM, 2.1×100 mm. column (P/N: 00D-4475-AN), 5% acetonitrile/95% 0.1% formic acid for 0.5 min then a 7.0 min linear gradient to 40% acetonitrile/60% 0.1% formic acid, 400 μL/min., column temperature 45° C. Product assignments were based on high resolution mass spectrometer fragmentation.

Where [4] appears, read: Measurement determined at Analyza.
Setting [5] is: MDR1-transfected MDCK cell line, ratio of permeability.
Setting [6] is: Table 4, read-out: BACE1 Cell Free IC50.
The mark [7] stands for this setting: CHO cell transfected with hERG gene, automated Qpatch HT system.
[8] abbreviates: CHO cells transfected with hERG.
Setting [9] is: Measurement determined at Analyza, read-out: pKa.
The mark [10] stands for this setting: geometric mean of 2-4 determinations unless otherwise indicated (b: ≧5; c: single determination), read-out: BACE1 Cell-free Assay IC50.

Chain of hERG channel (Q12809 whole entry): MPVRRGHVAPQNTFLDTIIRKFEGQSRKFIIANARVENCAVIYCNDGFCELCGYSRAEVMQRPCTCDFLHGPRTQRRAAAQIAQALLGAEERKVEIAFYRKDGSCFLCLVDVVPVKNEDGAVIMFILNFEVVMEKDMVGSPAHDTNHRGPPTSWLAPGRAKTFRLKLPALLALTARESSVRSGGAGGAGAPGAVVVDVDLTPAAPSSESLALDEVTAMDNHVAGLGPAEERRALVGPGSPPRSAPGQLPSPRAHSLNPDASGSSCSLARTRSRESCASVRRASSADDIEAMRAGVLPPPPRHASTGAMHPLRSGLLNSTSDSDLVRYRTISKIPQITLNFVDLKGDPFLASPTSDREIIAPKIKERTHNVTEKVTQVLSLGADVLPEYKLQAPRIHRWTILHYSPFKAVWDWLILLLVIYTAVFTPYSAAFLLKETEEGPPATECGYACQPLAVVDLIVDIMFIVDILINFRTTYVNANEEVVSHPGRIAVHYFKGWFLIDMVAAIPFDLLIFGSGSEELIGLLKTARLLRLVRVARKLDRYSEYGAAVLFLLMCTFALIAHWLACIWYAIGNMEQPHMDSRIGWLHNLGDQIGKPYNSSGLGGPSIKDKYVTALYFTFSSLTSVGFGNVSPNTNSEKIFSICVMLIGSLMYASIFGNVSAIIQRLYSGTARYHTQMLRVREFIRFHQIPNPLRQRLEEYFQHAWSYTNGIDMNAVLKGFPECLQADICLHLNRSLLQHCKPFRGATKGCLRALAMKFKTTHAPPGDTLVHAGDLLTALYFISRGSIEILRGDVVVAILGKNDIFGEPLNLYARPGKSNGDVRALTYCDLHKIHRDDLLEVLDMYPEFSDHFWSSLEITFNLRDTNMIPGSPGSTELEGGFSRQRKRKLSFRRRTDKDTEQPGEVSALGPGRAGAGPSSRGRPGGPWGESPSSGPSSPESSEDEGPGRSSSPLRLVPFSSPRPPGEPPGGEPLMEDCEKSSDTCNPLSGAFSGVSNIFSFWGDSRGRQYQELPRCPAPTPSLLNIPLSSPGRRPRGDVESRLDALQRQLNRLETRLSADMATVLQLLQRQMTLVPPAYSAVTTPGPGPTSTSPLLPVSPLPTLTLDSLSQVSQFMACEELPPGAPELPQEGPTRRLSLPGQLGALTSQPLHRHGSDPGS
Chain of P-glycoprotein (MDR1-transfected MDCK cell line) (P08183 whole entry): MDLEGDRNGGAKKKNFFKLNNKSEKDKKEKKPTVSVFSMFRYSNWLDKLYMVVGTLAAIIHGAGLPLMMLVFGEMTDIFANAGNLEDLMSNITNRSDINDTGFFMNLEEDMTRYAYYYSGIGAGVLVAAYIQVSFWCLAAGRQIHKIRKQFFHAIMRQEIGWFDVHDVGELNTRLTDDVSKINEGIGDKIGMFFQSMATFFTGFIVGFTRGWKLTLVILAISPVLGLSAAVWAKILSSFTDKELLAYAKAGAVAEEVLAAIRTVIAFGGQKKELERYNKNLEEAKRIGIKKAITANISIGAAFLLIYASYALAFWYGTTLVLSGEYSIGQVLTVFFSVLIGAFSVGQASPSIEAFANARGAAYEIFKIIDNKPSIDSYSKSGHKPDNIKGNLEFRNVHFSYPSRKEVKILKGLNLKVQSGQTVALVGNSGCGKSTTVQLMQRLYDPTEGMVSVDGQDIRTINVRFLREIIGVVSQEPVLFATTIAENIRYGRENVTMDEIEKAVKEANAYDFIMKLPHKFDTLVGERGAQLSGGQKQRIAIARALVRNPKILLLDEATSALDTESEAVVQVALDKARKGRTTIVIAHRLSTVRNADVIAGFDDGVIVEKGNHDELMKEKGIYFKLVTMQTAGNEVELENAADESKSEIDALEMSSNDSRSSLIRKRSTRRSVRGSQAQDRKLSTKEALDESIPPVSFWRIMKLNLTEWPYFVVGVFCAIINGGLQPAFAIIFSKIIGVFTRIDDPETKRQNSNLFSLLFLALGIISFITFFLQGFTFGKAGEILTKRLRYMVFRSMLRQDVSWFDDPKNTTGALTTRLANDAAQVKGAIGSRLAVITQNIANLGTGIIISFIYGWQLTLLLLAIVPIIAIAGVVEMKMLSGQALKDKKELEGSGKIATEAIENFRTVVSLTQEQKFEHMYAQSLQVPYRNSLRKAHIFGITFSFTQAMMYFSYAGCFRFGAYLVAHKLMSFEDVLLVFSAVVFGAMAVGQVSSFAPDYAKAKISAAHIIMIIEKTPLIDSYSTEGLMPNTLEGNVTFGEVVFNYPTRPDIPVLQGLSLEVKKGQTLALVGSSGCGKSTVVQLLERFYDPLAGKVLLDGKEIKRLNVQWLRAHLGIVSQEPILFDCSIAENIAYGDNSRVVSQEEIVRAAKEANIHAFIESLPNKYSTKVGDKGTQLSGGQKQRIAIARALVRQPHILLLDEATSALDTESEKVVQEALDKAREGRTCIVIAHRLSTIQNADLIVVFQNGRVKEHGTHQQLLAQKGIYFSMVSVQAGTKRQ
Chain of CYP2D6 (P10635 whole entry): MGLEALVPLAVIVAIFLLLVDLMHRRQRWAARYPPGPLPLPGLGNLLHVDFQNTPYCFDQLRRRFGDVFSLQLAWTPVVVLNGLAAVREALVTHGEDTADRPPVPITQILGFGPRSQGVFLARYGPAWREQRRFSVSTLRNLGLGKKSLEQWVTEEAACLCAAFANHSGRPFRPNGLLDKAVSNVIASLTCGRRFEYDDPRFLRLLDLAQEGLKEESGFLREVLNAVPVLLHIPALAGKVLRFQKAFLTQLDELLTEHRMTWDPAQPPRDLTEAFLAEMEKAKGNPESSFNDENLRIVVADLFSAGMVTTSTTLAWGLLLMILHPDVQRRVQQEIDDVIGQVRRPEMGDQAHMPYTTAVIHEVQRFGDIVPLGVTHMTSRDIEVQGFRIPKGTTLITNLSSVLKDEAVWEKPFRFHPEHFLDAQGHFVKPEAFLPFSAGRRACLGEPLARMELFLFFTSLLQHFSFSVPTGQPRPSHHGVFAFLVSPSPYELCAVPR
Chain of BACE1 (P56817 46-457): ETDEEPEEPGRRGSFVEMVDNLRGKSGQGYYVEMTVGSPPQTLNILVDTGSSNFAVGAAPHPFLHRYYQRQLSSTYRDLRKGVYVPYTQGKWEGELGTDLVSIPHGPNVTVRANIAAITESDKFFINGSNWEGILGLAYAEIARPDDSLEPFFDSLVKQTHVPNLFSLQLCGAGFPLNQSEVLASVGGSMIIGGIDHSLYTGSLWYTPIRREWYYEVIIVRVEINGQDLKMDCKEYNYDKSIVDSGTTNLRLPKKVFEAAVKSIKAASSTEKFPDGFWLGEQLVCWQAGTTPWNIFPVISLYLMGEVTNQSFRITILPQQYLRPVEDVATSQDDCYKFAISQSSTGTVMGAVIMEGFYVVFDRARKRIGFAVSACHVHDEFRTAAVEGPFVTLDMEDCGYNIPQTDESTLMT

With `C[C@H]1C[C@H]2CSC(N)=N[C@@]2(c2nc(NC(=O)c3ccc(OC(F)F)cn3)cs2)CO1` [Comparator 1], the pKa – broadly, the negative logarithm of the acid dissociation constant – in “pKa” (setting [4]) came out at 7.0. Also, the “Aniline Structural Alert” value in “Aniline structural alert” is recorded as “No”. The “Pgp liability MDR1 Er” value in data set [1] (setting [5]) is recorded as 7.1.

In the case of `C[C@H]1C[C@H]2CSC(N)=N[C@@]2(c2nc(NC(=O)c3ccc(OC(F)F)cn3)ccc2F)CO1` [Comparator 2], the figures for the IC50 at CYP2D6 (read-out: CYP2D6 IC50) and at BACE1 (setting [6]) were less than 0.03 µM and 0.043 µM, respectively. Moreover, the pKa in the data set “pKa” and in the data set “pKa” (setting [4]) was 8.7 in each case. For the same compound, the “HLM CLint” value in data set [2] is recorded as 22.9 mL/min/kg^. Also, the “Aniline Structural Alert” value in “Aniline structural alert” was “No”. For the same compound, the “Pgp liability MDR1 Er” value in [1] (setting [5]) was 14.2.

Take `C[C@H]1C[C@H]2CSC(N)=N[C@@]2(c2nc(NC(=O)c3ccc(OC(F)F)cn3)ccc2F)CO1` [Comparator 3, reference compound]: the IC50 (commonly the concentration that inhibits the measured activity by half) at BACE1 (setting [6]) stood at 0.003 µM; on hERG channel (setting [7]), 0.4 µM. In addition, the pKa in “pKa” (setting [4]) was 8.3. Further, in data set [2], the “HLM CLint” value is 19.8 mL/min/kg^. For the same compound, the “Aniline Structural Alert” value in the data set “Aniline structural alert” was “Yes”. In addition, the “Pgp liability MDR1 Er” value in data set [1] (setting [5]) is on record as 5.1.

Regarding `NC1=N[C@@]2(c3cc(NC(=O)c4ccc(OC(F)F)cn4)ccc3F)COCC[C@H]2CS1` [Comparator 4, reference compound], the IC50 is less than 0.001 µM in data set [3], less than 0.1 µM against CYP2D6 (microsomes), 0.009 µM on BACE1 (setting [6]) and 0.5 µM against hERG channel (setting [7]). This compound also registered a pKa in the data set “pKa” (setting [4]) of 8.2. In [2], the “HLM CLint” value was determined as 8.3 mL/min/kg. For the same compound, the “Aniline Structural Alert” value in the data set “Aniline structural alert” is reported as “Yes”. Also, the “Pgp liability MDR1 Er” value in data set [1] (setting [5]) is 6.8.

`C[C@H]1C[C@H]2CSC(N)=N[C@@]2(c2nc(NC(=O)c3ccc(OC(F)F)cn3)cs2)CO1` [Example 1, N-{2-[(4aR,6S,8aR)-2-amino-6-methyl-4,4a,5,6-tetrahydropyrano[3,4-d][1,3]thiazin-8a(8H)-yl]-1,3-thiazol-4-yl}-5-(difluoromethoxy)pyridine-2-carboxamide]: the IC50 in [3] (Homo sapiens) was 0.005 µM; on CYP2D6, greater than 30 µM; at CYP2D6 (human, microsomes, pH 7.4) it was greater than 30 µM; at hERG channel (setting [7]) it was 9.9 µM; on hERG channel (setting [8]), greater than 5 µM. Moreover, the pKa in the data set “pKa” (setting [9]) was 6.8. Further, in “GSH Incubation Assay”, the “Observed GSH adducts” value was “Negative”. The “formation of GSH adducts” value in “GSH Incubation Assay” is “not detected”. Also, in data set [2], the “HLM CLint” value is less than 8 mL/min/kg. The intrinsic clearance (CLint scaled) – broadly, a measure of how fast metabolising enzymes remove a compound, apart from limits set by blood flow – in data set [2] is less than 0.48 L/h/kg. Besides, in data set [1] (MDR1-transfected MDCK), the “Pgp liability MDR1 Er” value is less than 2.5.

Consider `C[C@H]1C[C@H]2CSC(N)=N[C@@]2(c2nc(NC(=O)c3ccc(Cl)cn3)cs2)CO1` [Example 7, N-{2-[(4aR,6S,8aR)-2-amino-6-methyl-4,4a,5,6-tetrahydropyrano[3,4-d][1,3]thiazin-8a(8H)-yl]-1,3-thiazol-4-yl}-5-chloropyridine-2-carboxamide], for which the half-maximal inhibitory concentration (IC50) was 0.004 µM in data set [3] (Homo sapiens); greater than 30 µM against CYP2D6; greater than 30 µM against CYP2D6 (human, microsomes, pH 7.4); 9 µM on hERG channel (setting [7]); greater than 5 µM against hERG channel (setting [8]). The pKa in “pKa” (setting [9]) is 6.9. For the same compound, the “Observed GSH adducts” value in “GSH Incubation Assay” is “Negative”. For the same compound, the “formation of GSH adducts” value in the data set “GSH Incubation Assay” is reported as “not detected”. The “HLM CLint” value in [2] is listed as less than 8 mL/min/kg. In [2], the CLint scaled was less than 0.48 L/h/kg. For the same compound, the “Aniline Structural Alert” value in “Aniline structural alert” is given as “No”. For the same compound, the “Pgp liability MDR1 Er” value in data set [1] (MDR1-transfected MDCK) is listed as less than 2.5.

Take `Cc1cc(OC(F)F)cnc1C(=O)Nc1csc([C@]23CO[C@@H](C)C[C@H]2CSC(N)=N3)n1` [Example 45, N-{2-[(4aR,6S,8aR)-2-amino-6-methyl-4,4a,5,6-tetrahydropyrano[3,4-d][1,3]thiazin-8a(8H)-yl]-1,3-thiazol-4-yl}-5-(difluoromethoxy)-3-methylpyridine-2-carboxamide]: the IC50 is 0.003 µM in [3] (Homo sapiens); greater than 30 µM against CYP2D6; greater than 30 µM at CYP2D6 (human, microsomes, pH 7.4); 0.023 µM on BACE1 (setting [6]); 0.023 µM at BACE1 (setting [10]). For the same compound, the pKa in “pKa” (setting [9]) was 6.9. Besides, in the data set “GSH Incubation Assay”, the “Observed GSH adducts” value was “Negative”. Further, the “formation of GSH adducts” value in the data set “GSH Incubation Assay” is “not detected”. Besides, in data set [2], the “HLM CLint” value was less than 8 mL/min/kg. In data set [2], this compound registered a CLint scaled of less than 0.48 L/h/kg. Further, the “Aniline Structural Alert” value in “Aniline structural alert” was “No”.

For the compound `Cc1oc(CF)nc1C(=O)Nc1csc([C@]23CO[C@@H](C)C[C@H]2CSC(N)=N3)n1` [Example 102, N-{2-[(4aR,6S,8aR)-2-amino-6-methyl-4,4a,5,6-tetrahydropyrano[3,4-d][1,3]thiazin-8a(8H)-yl]-1,3-thiazol-4-yl}-2-(fluoromethyl)-5-methyl-1,3-oxazole-4-carboxamide], the IC50 on BACE1 (setting [10]) stood at 0.012 µM.

Consider `COCC(F)(F)c1ccc(C(=O)Nc2csc([C@]34CO[C@@H](C)C[C@H]3CSC(N)=N4)n2)nc1` [Example 103, N-{2-[(4aR,6S,8aR)-2-amino-6-methyl-4,4a,5,6-tetrahydropyrano[3,4-d][1,3]thiazin-8a(8H)-yl]-1,3-thiazol-4-yl}-5-(1,1-difluoro-2-methoxyethyl)pyridine-2-carboxamide], for which the IC50 at BACE1 (setting [10]) turned out to be 0.282 µM.

`CCC(F)(F)Oc1ccc(C(=O)Nc2csc([C@]34CO[C@@H](C)C[C@H]3CSC(N)=N4)n2)nc1` [Example 104, N-{2-[(4aR,6S,8aR)-2-amino-6-methyl-4,4a,5,6-tetrahydropyrano[3,4-d][1,3]thiazin-8a(8H)-yl]-1,3-thiazol-4-yl}-5-(1,1-difluoropropoxy)pyridine-2-carboxamide]: on BACE1 (setting [10]), the IC50 was 0.308 µM.

In the case of `C[C@H]1C[C@H]2CSC(N)=N[C@@]2(c2nc(NC(=O)C34CC(C3)C4)cs2)CO1` [Example 105, N-{2-[(4aR,6S,8aR)-2-amino-6-methyl-4,4a,5,6-tetrahydropyrano[3,4-d][1,3]thiazin-8a(8H)-yl]-1,3-thiazol-4-yl}bicyclo[1.1.1]pentane-1-carboxamide], the IC50 on BACE1 (setting [10]) was 0.085 µM.

For `C[C@H]1C[C@H]2CSC(N)=N[C@@]2(c2nc(NC(=O)C3(C#N)CC3)cs2)CO1` [Example 106, N-{2-[(4aR,6S,8aR)-2-amino-6-methyl-4,4a,5,6-tetrahydropyrano[3,4-d][1,3]thiazin-8a(8H)-yl]-1,3-thiazol-4-yl}-1-cyanocyclopropanecarboxamide], the concentration for half-maximal inhibition (IC50) at BACE1 (setting [10]) turned out to be 0.348 µM.

`C[C@H]1C[C@H]2CSC(N)=N[C@@]2(c2nc(NC(=O)C3CC3)cs2)CO1` [Example 107, N-{2-[(4aR,6S,8aR)-2-amino-6-methyl-4,4a,5,6-tetrahydropyrano[3,4-d][1,3]thiazin-8a(8H)-yl]-1,3-thiazol-4-yl}cyclopropanecarboxamide]: the IC50 on BACE1 (setting [10]) is 0.475 µM.

For `C[C@H]1C[C@H]2CSC(N)=N[C@@]2(c2nc(NC(=O)C3(C#N)CCC3)cs2)CO1` [Example 108, N-{2-[(4aR,6S,8aR)-2-amino-6-methyl-4,4a,5,6-tetrahydropyrano[3,4-d][1,3]thiazin-8a(8H)-yl]-1,3-thiazol-4-yl}-1-cyanocyclobutanecarboxamide], on BACE1 (setting [10]), the half-maximal inhibitory concentration (IC50) was determined as 0.094 µM.

For the compound `C[C@H]1C[C@H]2CSC(N)=N[C@@]2(c2nc(NC(=O)C3(C)CCC3)cs2)CO1` [Example 109, N-{2-[(4aR,6S,8aR)-2-amino-6-methyl-4,4a,5,6-tetrahydropyrano[3,4-d][1,3]thiazin-8a(8H)-yl]-1,3-thiazol-4-yl}-1-methylcyclobutanecarboxamide], the IC50 at BACE1 (setting [10]) is 0.461 µM.

The values are drawn from patent publication US9315520B2, “2-amino-6-methyl-4,4a,5,6-tetrahydropyrano[3,4-d][1,3]thiazin-8a(8H)-yl-1,3-thiazol-4-yl amides” (Pfizer Inc., priority 2014, dated 2016).
